# Measurements as given in paper PMC5556019, “Targeting Apolipoprotein E/Amyloid β Binding by Peptoid CPO_Aβ17-21 P Ameliorates Alzheimer’s Disease Related Pathology and Cognitive Decline” (Scientific Reports, 2017).
# Numbered stars: 1 amine (or outer) side, 2 acyl side, 3 side chain; on linkers, the order of the positions; unused ones are H or OH. Bridge positions count the residues as written; N and C are the ends. Square brackets hold non-standard residues; d marks the D form. Peptide text beside a SMILES is read from it. ξ: configuration not given here. N(CH2CH2CO)Gly = O=C(CN(CCC(=O)[*:3])[*:1])[*:2]; Nphe = O=C(O)CNCc1ccccc1; Nleu = CC(C)CNCC(=O)O; ξP = O=C(O)C1CCCN1; Sar = CNCC(=O)O
# Tests used:
# [1] = test system: apoE4 mediated Aβ42 aggregation; assay: Thioflavin T assay of apoE4 mediated Aβ42 aggregation; type: biochemical, human
# Description: (§1) Peptide Aβ42 or peptoid CPO_Aβ17-21 P were incubated alone at a concentration of 100 µM over a period of 7–10 days at 37 °C in 100 mM Tris buffer (pH 7.4). […] In aggregation inhibition experiments, apoE4 was pre-incubated with CPO_Aβ17-21 P in a molar ratio of 1:2 for 6 hrs at 37 °C followed by addition to freshly reconstituted Aβ42 on ice (molar ratio 100:1:2, Aβ42:apoE4:peptoid). As a control, Aβ42 was also incubated with CPO_Aβ17-21 P at a molar ratio of 100:2. For peptide Aβ40 all the experiments were conducted under the same conditions as Aβ42 except the peptide concentration was 400 µM. The molar ratio of Aβ40:apoE4:CPO_Aβ17-21 P was 100:1:2. (400 µM Aβ40:4 µM apoE4:8 µM CPO_Aβ17-21 P). Fibril formation by the different peptides at various time points was evaluated by a standard Thioflavin-T assay according to previously published protocols, [33].The samples were diluted in buffer containing 50 mM glycine, 2 µM Thioflavin T pH 9.2, and read on a Molecular Devices SpectraMax M2 spectrophotometer (Sunnyvale, CA) at excitation and emission wavelengths 440 and 482 nm.
# apoE4/Aβ42 binding = biological target: T1, apoE4/Aβ42 binding (Homo sapiens, UniProt P02649, C130R); assay: Surface plasmon resonance assay of apoE4/Aβ42 binding inhibition
# T1 construct: purchased BioVision (Milpitas, CA)
# Description: Experiments were performed using a Reichert SR7000DC refractometer system (Reichert, New York) equipped with a CM5 sensor chip. Acetate buffer was used for immobilization of the peptide Aβ42 (ligand). […] Importantly, Aβ42 species are considered critical for seeding of amyloid deposits, [32]. CM-dextran on a CM5 gold sensor chip was activated by injecting a solution of 10 mg/mL N-Hydroxysuccinimide (NHS) and 40 mg/mL 1-Ethyl-3-(3-dimethylaminopropyl) carbodiimide (EDC) over the sensor chip surface for 7 min at a flow rate of 20 µL/min. Then the ligand, 50 µg/mL HFIP treated synthetic peptide Aβ42 in 10 mM sodium acetate, pH 4.5, was immobilized by injection over the surface for 20 min. The unreacted sites on the sensor chip surface were blocked by injection of 1 M ethanolamine, pH 8.5 for 10 min. […] After each binding cycle the surface was regenerated by a short, fast injection of 10 mM hydrochloric acid. To verify results analytes containing lipidated human apoE4 molecules or lipidated human apoE3 molecules incubated with peptoid inhibitors in phosphate buffered saline with 0.05% TWEEN 20, pH 7.4 (PBST) were tested and the association and dissociation reactions were monitored.
# APP/PS1 Tg mice = assay: Astrocytosis and microgliosis by GFAP, CD11b and Iba1 immunoreactivity; type: in vivo, mouse; conditions: semi-quantitative rating 0-4, versus vehicle
# Description: The effect of CPO_Aβ17-21 P on Aβ deposition was tested in APP/PS1 Tg mice with plaque pathology. This AD mouse model develops plaque pathology from the age of 3 months. Animals were divided into two groups and received intraperitoneally (i.p.) injections of 0.2 mg of CPO_ Aβ17–21 P per mouse in sterile saline (n = 11, 5 male, 6 female) or saline alone (n = 10, 5 male, 5 female) as a control twice weekly for 4 months, beginning at age 3 months. During the treatment, veterinary staff monitored animals for any signs of toxicity, such as changes in body weight, physical appearance, and altered behavior. Animals were sacrificed a week after administration of the last treatment dose and behavioral testing. All mouse care and experimental procedures were compliant with guidelines of animal experimentation and were approved by the Institutional Animal Care and Use Committee at the New York University School of Medicine.
# Mice were anesthetized with sodium pentobarbital (150 mg/kg, i.p.) and blood was collected via cardiac puncture and plasma was separated by centrifugation. Animals were perfused transaortically. The brains and internal organs were collected and cut into halves, one half immersion-fixed in periodate-lysine paraformaldehyde (PLP) for histopathological analysis, and another half snap-frozen for biochemical studies as previously described. Serial coronal brain sections (40 μm) were cut evenly spaced every 400 μm μm along the entire rostro-caudal brain axis and stained for immunohistochemical analysis with: (1) a mixture of anti-Aβ monoclonal antibodies 6E10/4G8 (1 :2000) (Covance, Princeton, NJ), (2) polyclonal anti-glial fibrillary acidic protein (GFAP) antibody (1:1000) (Dako, Carpinteria, CA), (3) polyclonal anti-Iba1 antibody (1:1000) (Wako Chemicals, Richmond, VA) and (4) monoclonal anti-CD11b (1: 500) (Serotec, Raleigh, NC). To measure treated mice brain total amyloid burden change, two different anti-Aβ monoclonal antibodies with distinct epitopes 6E10 (epitope Aβ1–16) and 4G8 (epitope Aβ17–24) were used[38]. To examine brain inflammation levels associated with treatment, we assessed the degree of astrocytosis with GFAP immunoreactivity and the degree of microgliosis with Iba1 and CD11b immunoreactivity as previously published, [37], [39], [40]. GFAP is a component of the glial intermediate filaments that form part of the cytoskeleton and is found predominantly in astrocytes. CD11b is a protein subunit that forms integrin alpha-M beta-2 (αMβ2) molecule, also known as MAC-1 or complement receptor 3 (CR3). CD11b monoclonal antibodies are commonly used for detection of microglial activation at the earliest stages of plaque development. In addition, Iba1 (ionized calcium binding adaptor molecule) antibody was used to label the entire microglia population including activated and resting microglia, a marker for detecting generic microglia, [43]. Immunohistochemistry was performed on free floating coronal brain sections. Details of the procedure and techniques were described previously, [37], [39], [40]. […] Human Alzheimer disease patients brain sections were used for positive control immunostaining, sequential mouse brain sections with omission of the primary antibody were used for negative immunostaining controls.
# The assessment of astrocytosis and microgliosis were based on a semi-quantitative analysis, using methods we have previously published by a rater blinded to the treatment status of the mice[19], [37], [39], [40]. Prior to analysis, brains were microscopically examined and rated on a scale from 0–4, in increments of 0.5, depending on the degree of pathology and/or the activation stage of the glial cells. All stained cortical and hippocampal sections were analyzed at 10x magnification. Approximately 8 cortical sections and 6 hippocampal sections were analyzed per animal. […]
# [2] = test system: apoE4 mediated Aβ40 aggregation; assay: Thioflavin T assay of apoE4 mediated Aβ40 aggregation; type: biochemical, human
# Description: as §1
# T1 sequence (P02649 19-317 C130R): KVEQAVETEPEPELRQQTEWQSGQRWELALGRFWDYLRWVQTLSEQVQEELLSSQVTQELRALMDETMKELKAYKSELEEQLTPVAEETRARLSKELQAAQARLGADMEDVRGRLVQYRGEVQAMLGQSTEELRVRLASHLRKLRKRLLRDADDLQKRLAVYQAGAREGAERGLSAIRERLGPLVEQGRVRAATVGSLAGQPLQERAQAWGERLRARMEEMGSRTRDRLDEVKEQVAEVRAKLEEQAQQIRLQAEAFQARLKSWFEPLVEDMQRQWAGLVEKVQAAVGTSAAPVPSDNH
structure (smiles),measurement,setting,value
CC(C)CN1CC(=O)N2CCCC2C(=O)N(Cc2ccccc2)CC(=O)N(Cc2ccccc2)CC(=O)N(C)CC(=O)N(CC(N)=O)CCC1=O (centres unmarked) [CPO_Aβ17-21 P] ([Nleu][ξP][Nphe][Nphe][Sar][N(CH2CH2CO)Gly]-NH2; lactam N-6),inhibition of apoE4 mediated Aβ42 aggregation,"[1]; 100 µM Aβ42, molar ratio 100:1:2 Aβ42:apoE4:peptoid, apoE4 pre-incubated 6 hrs 37 °C, p = 0.0011",significant inhibition
same,Aβ42 fibril formation with peptoid versus Aβ42 alone,"[1]; Aβ42 + peptoid without apoE4, molar ratio 100:2",no significant difference
same,inhibition of apoE4/Aβ42 binding,"apoE4/Aβ42 binding; SPR, 2:1 molar ratio (peptoid:apoE4)",50%
same,inhibition of apoE4/Aβ42 binding,"apoE4/Aβ42 binding; SPR, 8:1 molar ratio (peptoid:apoE4)",near complete inhibition
same,inhibition of apoE4/Aβ42 binding (library screen),"apoE4/Aβ42 binding; SPR, immobilised Aβ42, recombinant human apoE4 pre-incubated with peptoid, PBST pH 7.4",inhibited apoE4/Aβ42 binding
same,IC50,"apoE4/Aβ42 binding; one-site competition nonlinear regression, Fig. 1d legend: lipidated apoE/Aβ binding, read-out: half-maximal inhibition (IC50) of apoE/Aβ binding",1.02 nM
same,cortical astrogliosis (GFAP immunoreactivity),APP/PS1 Tg mice,no significant effect
same,cortical microgliosis (CD11b immunoreactivity),APP/PS1 Tg mice,decreased
same,cortical microgliosis (Iba1 immunoreactivity),APP/PS1 Tg mice,reduced
same,hippocampal astrogliosis (GFAP immunoreactivity),APP/PS1 Tg mice,decreased
same,hippocampal microgliosis (CD11b immunoreactivity),APP/PS1 Tg mice,no significant effect
same,hippocampal microgliosis (Iba1 immunoreactivity),APP/PS1 Tg mice,no significant effect
same,inhibition of apoE4 mediated Aβ40 aggregation,"[2]; 400 µM Aβ40:4 µM apoE4:8 µM peptoid, apoE4 pre-incubated with peptoid 6 hrs 37 °C, p = 0.0034",significant inhibition
same,Aβ40 fibril formation with peptoid versus Aβ40 alone,"[2]; Aβ40 + peptoid without apoE4, molar ratio 100:2",no significant difference
